# Patent US20260200882A1, “NOVEL FIVE-MEMBERED HETEROCYCLE SUBSTITUTED STYRENE DERIVATIVE, AND PREPARATION METHOD THEREFOR AND USE THEREOF” (Guangzhou Nanocrystal Biotechnology Co., Ltd., priority 2022, published 2026)
# Legend:
# [1] = system: Mouse macrophages (RAW264.7); test: Toxicity to macrophages by MTT method; assay type: cell-based; details: RAW264.7, MTT, 48 h culture with compound
# Procedure: (1) the Toxicity to Macrophages was Tested by MTT Method:
# Mouse macrophages (RAW264.7) were taken, inoculated into 96-well plates ([…]) at a concentration of 3×10^4/mL and cultured in an incubator of 5% CO2 at 37° C. for 18 h. After the cells adhered to the wall, the supernate was discarded and compounds of different concentrations were added to continue the culture for 48 h. 0.5 mg/mL of MTT was added. After continued culture for 4 h, […] of DMSO was added to each well, and then shaken on a shaker for 10 min. Absorbance (OD value) at 570 nm was measured by a microplate reader, and IC50 was calculated by Prism software.
# [2] = system: LPS-induced NO production in macrophages (RAW264.7); test: Inhibition of LPS-induced NO production in macrophages; assay type: cell-based, mouse; set-up: dose or concentration left out as unconfirmed; details: LPS-induced RAW264.7, 24 h
# Procedure: In this test example, the styrene derivatives prepared by embodiments 2-20 were tested for their toxicities to mouse macrophages (RAW264.7). The nitric oxide (NO) inhibition assays using lipopolysaccharide (LPS)-induced RAW264.7 cells were also performed to evaluate their anti-inflammatory activities (Test methods refer to Zhou W. et al. Biomed Pharmacother 2020, 131:110696.).
# (2) Inhibition of LPS-Induced NO Production Activity in Macrophages was Tested (the Test Method Refers to Biomed Pharmacother. 2020 November; 131:110696):
# Mouse macrophages (RAW264.7) were taken, inoculated into 96-well plates ([…]) at a concentration of 5×10^5/mL and cultured in a 5% CO2 incubator at 37° C. for 18 h. Then, the compound (final concentration: […]) and LPS (final concentration: 5 µg/mL) were added into a cell culture solution and cultured at 37° C. for 24 h. Then, the supernatant of the cell culture solution was taken and placed into a new 96-well plate by 50 µL per well; and then 50 µL of solution A and 50 µL of solution B of a Beyotime NO kit were added.
# After culturing in the incubator at 37° C. for 10 min, the absorbance (OD value) at 540 nm was tested.
SMILES,IC50 ([1]; Mus musculus),Inhibitory activity against nitric oxide production (%) [2],IC50 [1]
COc1cc(/C=C/c2ccsc2)cc(O)c1C1CC1 [No 18],> 1000 nM,>50%,–
Oc1cc(/C=C/c2ccsc2)cc(O)c1C1=CCCC1 [No 7],> 1000 nM,<50%,–
C=C(C)c1c(O)cc(/C=C/c2cscn2)cc1O [No 16],> 1000 nM,<50%,–
Oc1cc(/C=C/c2ccsc2)cc(O)c1C1CCCC1 [No 11],> 1000 nM,<50%,–
CC(C)c1c(O)cc(/C=C/c2cscn2)cc1O [No 4],> 1000 nM,<50%,–
CC(C)c1c(O)cc(/C=C/c2cncs2)cc1O [No 3],> 1000 nM,>50%,–
Oc1cc(/C=C/c2ccsc2)cc(O)c1C1CC1 [No 5],> 1000 nM,<50%,–
Oc1cc(/C=C/c2cscn2)cc(O)c1C1CCCC1 [No 12],> 1000 nM,<50%,–
COc1cc(/C=C/c2ccsc2)cc(O)c1Br [No 19],> 1000 nM,>50%,–
C=C(C)c1c(O)cc(/C=C/c2cncs2)cc1O [No 17],> 1000 nM,<50%,–
Oc1cc(/C=C/c2ccoc2)cc(O)c1Br [No 13],> 1000 nM,<50%,–
Oc1cc(/C=C/c2cscn2)cc(O)c1C1=CCCC1 [No 9],–,<50%,> 1000 nM
COc1cc(/C=C/c2ccoc2)cc(O)c1C(C)C [No 20],–,>50%,> 1000 nM
Oc1cc(/C=C/c2ccoc2)cc(O)c1C1CC1 [No 6],> 1000 nM,<50%,–
CC(C)c1c(O)cc(/C=C/c2ccoc2)cc1O [No 2],> 1000 nM,<50%,–
Oc1cc(/C=C/c2cncs2)cc(O)c1C1=CCCC1 [No 10],–,<50%,> 1000 nM
